# Measured values taken from US20220251084A1, “PROGRANULIN MODULATORS AND METHODS OF USING THE SAME” (ARKUDA THERAPEUTICS, priority 2019, published 2022).
# Tested on: progranulin (PGRN) secretion, BV-2 cells
# Assay: PGRN assay: progranulin induction cellular assay (ELISA of secreted mouse PGRN)
# Type: cell-based
# Settings: not given
# Method in brief: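 Progranulin induction measured in BV-2 cells plated at about 80% confluence the day before, given 1 h to attach, then incubated 16 h. Secreted mouse PGRN quantified by ELISA.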
row,Compound,EC50
1,"O=C(O[C@@H]1CN2CCC1CC2)N1CCc2ccsc2C1c1ccc(F)cc1 (stereo partly drawn) [Compound 2122, (S)-quinuclidin-3-yl 7-(4-fluorophenyl)-4,7-dihydrothieno[2,3-c]pyridine-6(5H)-carboxylate]",3280 nM

# Same assay, conditions: Mus musculus, BV-2
row,Compound,EC50
1,C#CCOc1ccc2c(c1)CCN(C(=O)O[C@@H]1CN3CCC1CC3)[C@H]2c1ccc(F)cc1 [Compound 2082],7460 nM
2,C#CCOc1ccc2c(c1)CCN(C(=O)O[C@@H]1CN3CCC1CC3)[C@@H]2c1ccc(F)cc1 [Compound 2083],6070 nM

# Same assay, conditions: Mus musculus, BV-2, PGRN assay, Table C; secreted mouse PGRN in cell culture medium, ELISA
row,Compound,EC50
1,CNC(=O)c1ccc2c(c1)CCN(C(=O)N[C@@H]1CN3CCC1CC3)[C@H]2c1ccc(F)cc1 [Compound 2090],> 10000 nM
2,"CS(=O)(=O)c1ccc2c(c1)CCN(C(=O)N[C@@H]1CN3CCC1CC3)[C@@H]2c1ccc(F)cc1 [Compound 2041, 1-(4-fluorophenyl)-6-(methylsulfonyl)-N—((S)-quinuclidin-3-yl)-3,4-dihydroisoquinoline-2(1H)-carboxamide]",> 10000 nM
3,CNC(=O)c1ccc2c(c1)CCN(C(=O)NCC13CCN(CC1)CC3)[C@H]2c1ccc(F)cc1 [Compound 2070],3620 nM
4,O=C(C[C@@H]1CCCNC1)N1CCc2ccccc2[C@@H]1c1ccc(F)cc1 [Compound 2188],3210 nM
5,O=C(NCC1CCNCC1)N1CCc2ccccc2[C@@H]1c1ccc(F)cc1 [Compound 2165],> 10000 nM
6,CO[C@H](CC12CCN(CC1)CC2)C(=O)N1CCc2ccccc2[C@@H]1c1ccc(F)cc1 [Compound 2028],> 10000 nM
7,O=C(OCC12CCN(CC1)CC2)N1CCc2ccccc2[C@@H]1c1ccc(F)c(F)c1 [Compound 2110],7820 nM
8,O=C(N[C@H]1CCN2CCC[C@@H]12)N1CCc2ccccc2[C@@H]1c1ccc(F)cc1 [Compound 2051],> 10000 nM
9,"CN1C[C@H]2CC[C@@H](OC(=O)N3CCc4ccccc4[C@@H]3c3ccc(F)cc3)[C@H]2C1 (relative stereo) [Compound 2061, (1 S)-(rel-(3′aR,6′aS)-2′-methyloctahydrocyclopenta[c]pyrrol-4-yl)-1-(4-fluorophenyl)-3,4-dihydroisoquinoline-2(1H)-carboxylate]",321 nM
10,O=C(OCC12CCN(CC1)CC2)N1CCc2ccccc2[C@@H]1c1cccc(F)c1F [Compound 2112],8270 nM
11,CN1CCC(C)(OC(=O)N2CCc3ccccc3[C@@H]2c2ccc(F)cc2)CC1 [Compound 2129],358 nM
12,O=C(OCC12CCN(CC1)CC2)N1CCc2ccccc2[C@@H]1c1ccc(F)cc1F [Compound 2096],387 nM
13,COc1ccc(COc2ccc([C@H]3c4ccccc4CCN3C(=O)OCC34CCN(CC3)CC4)cc2)cc1 [Compound 2136],> 3160 nM
14,"O=C(O[C@@H]1CCNC1)N1CCc2ccccc2[C@@H]1c1ccc(F)cc1 [Compound 2179, (1S)—((R)-pyrrolidin-3-yl)-1-(4-fluorophenyl)-3,4-dihydroisoquinoline-2(1H)-carboxylate]",120 nM
15,"O=C(O[C@H]1CCNC1)N1CCc2ccccc2[C@@H]1c1ccc(F)cc1 [Compound 2180, (1S)—((S)-pyrrolidin-3-yl)-1-(4-fluorophenyl)-3,4-dihydroisoquinoline-2(1H)-carboxylate]",83 nM
16,O=C(OC1CC2CCN(C2)C1)N1CCc2ccccc2[C@@H]1c1ccc(F)cc1 (some centres unmarked) [Compound 2002],748 nM
17,COC(=O)c1ccc2c(c1)[C@@H](c1ccc(F)cc1)N(C(=O)OCC13CCN(CC1)CC3)CC2 [Compound 2045],> 10000 nM
18,"C#CCOCCN1CCC(OC(=O)N2CCc3ccccc3[C@@H]2c2ccc(F)cc2)CC1 [Compound 2197, 1-(2-(prop-2-yn-1-yloxy)ethyl)piperidin-4-yl (S)-1-(4-fluorophenyl)-3,4-dihydroisoquinoline-2(1H)-carboxylate]",1060 nM
19,O=C(C[C@H]1CCCNC1)N1CCc2ccccc2[C@@H]1c1ccc(F)cc1 [Compound 2187],400 nM
20,"O=C(O[C@H]1[C@@H]2CC[C@H]1CNC2)N1CCc2ccccc2[C@@H]1c1ccc(F)cc1 (single isomer, unassigned) [Compound 2102]",278 nM
21,CN1CCC(COC(=O)N2CCc3ccccc3[C@H]2c2cccc(F)c2F)CC1 [Compound 2135],2660 nM
22,"O=C([C@H](O)CC12CCN(CC1)CC2)N1CCc2ccccc2[C@@H]1c1ccc(F)cc1 (single isomer, unassigned) [Compound 2154]",353 nM
23,CS(=O)(=O)c1ccc2c(c1)[C@@H](c1ccc(F)cc1)N(C(=O)N[C@@H]1CN3CCC1CC3)CC2 [Compound 2057],> 10000 nM

# Same assay, conditions: Mus musculus, BV-2, PGRN assay, Table D; secreted mouse PGRN in cell culture medium, ELISA
row,Compound,EC50
1,"O=C(N1CC[C@@]2(CNCCO2)C1)N1CCc2ccccc2[C@H]1c1ccc(F)cc1 (single isomer, unassigned) [Compound 2323]",8870 nM
2,O=C(O[C@H]1CCNC1)N1CCc2ccccc2[C@H]1c1ccc(F)cc1 [Compound 2272],2030 nM
3,"CN1CCC(NC(=O)N2CCc3ccccc3[C@@H]2c2ccc(F)cc2)CC1 [Compound 2238, (S)-1-(4-fluorophenyl)-N-(1-methylpiperidin-4-yl)-3,4-dihydroisoquinoline-2(1H)-carboxamide]",720 nM
4,N[C@@H]1CCN(C(=O)N2CCc3ccccc3[C@H]2c2ccc(F)cc2)C1 [Compound 2286],2840 nM
5,"CN1C[C@H](NC(=O)N2CCc3ccccc3[C@@H]2c2ccc(F)cc2)C(F)(F)C1 [Compound 2294, (S)—N—((S)-4,4-difluoro-1-methylpyrrolidin-3-yl)-1-(4-fluorophenyl)-3,4-dihydroisoquinoline-2(1H)-carboxamide]",> 10000 nM
6,"O=C(N[C@H]1CNCCOC1)N1CCc2ccccc2[C@H]1c1ccc(F)cc1 (single isomer, unassigned) [Compound 2278]",439 nM
7,CN1C[C@H](NC(=O)N2CCc3ccccc3[C@@H]2c2ccc(F)cc2)C2(CC2)C1 [Compound 2315],742 nM
8,"CN1C[C@@H](NC(=O)N2CCc3ccccc3[C@@H]2c2ccc(F)cc2)C(F)(F)C1 [Compound 2293, (S)—N—((R)-4,4-difluoro-1-methylpyrrolidin-3-yl)-1-(4-fluorophenyl)-3,4-dihydroisoquinoline-2(1H)-carboxamide]",> 10000 nM
9,O=C(NC[C@@H]1CCCN1)N1CCc2ccccc2[C@@H]1c1ccc(F)cc1 [Compound 2217],3940 nM
10,CNC[C@@H]1CN(C(=O)N2CCc3ccccc3[C@@H]2c2ccc(F)cc2)CCO1 [Compound 2306],129 nM
11,CN1[C@@H]2CC[C@H]1[C@H](NC(=O)N1CCc3ccccc3[C@@H]1c1ccc(F)cc1)C2 [Compound 2227],4150 nM
12,CC1(C)CNC[C@@H]1OC(=O)N1CCc2ccccc2[C@@H]1c1ccc(F)cc1 [Compound 2291],591 nM
13,"O=C(N[C@H]1CNCC1(F)F)N1CCc2ccccc2[C@@H]1c1ccc(F)cc1 (stereo in doubt) [Compound 2243, (1 S)—N-(4,4-difluoropyrrolidin-3-yl)-1-(4-fluorophenyl)-3,4-dihydroisoquinoline-2(1H)-carboxamide]",360 nM
14,"CN(C(=O)N1CCc2ccccc2[C@@H]1c1ccc(F)cc1)[C@H]1CCCNC1 (single isomer, unassigned) [Compound 2211]",3030 nM
15,"CN1C[C@H](N(C)C(=O)N2CCc3ccccc3[C@@H]2c2ccc(F)cc2)C(F)(F)C1 [Compound 2299, (S)—N—((S)-4,4-difluoro-1-methylpyrrolidin-3-yl)-1-(4-fluorophenyl)-N-methyl-3,4-dihydroisoquinoline-2(1H)-carboxamide]",> 10000 nM
